Data as given in patent US6191153A, “Use of 2-amino-6-n-propyl-amino-4,5,6,7-tetrahydrobenzothiazole as a pharmaceutical composition having an antidepressant activity” (Boehringer Ingelheim KG, priority 1992, dated 2001).

Columns and labels:
[1] = tested on: rats; test: Forced swimming test (immobility time, antidepressant activity); format: in vivo; conditions: parenteral, eight rats
Protocol: Details of this behavioural test are described for example by Willner, Psychopharmacology 83, 1-16 (1984) and by Borsini and Meli, Psychopharmacology 94, 147-160 (1988).
Pramipexol (SND 919) was investigated on eight rats, by comparison with amineptine, a known antidepressant. Both substances were dissolved in physiological saline solution and administered by parenteral route.

[2] = in vivo
[3] = in vivo; remark: listed apart in the source

| Structure (SMILES) | Immobility time ([1]; dose 20.00 mg/kg) | Immobility time ([1]; dose 0.03 mg/kg) | Immobility time ([1]; dose 0.10 mg/kg) | Immobility time ([1]; dose 0.30 mg/kg) | bioavailability [2] | half-life [2] | tolerability [3] |
| --- | --- | --- | --- | --- | --- | --- | --- |
| O=C(O)CCCCCCNC1c2ccccc2CCc2ccccc21 [Amineptine, reference compound] | 134 ± 19 s |  |  |  |  |  |  |
| CCCN[C@H]1CCc2nc(N)sc2C1 [SND 919, 2-amino-6-n-propyl-amino-4,5,6,7-tetrahydrobenzothiazole] |  | 210 ± 14 s | 165 ± 6 s | 102 ± 17 s | > 80% | 12.5 h | extremely well tolerated |
